What is called EC50 is the concentration that produces a half-maximal response. Read a high EC50 as a need for much substance.

The experiment concerns ET (Huh-lucubineo-ET) cell line harboring I389luc-ubi-neo/NS3-3′/ET HCV replicon. Put plainly: Replicon assay (HCV replicon, luciferase readout). The following applies: Hepatitis C virus. Format: cell-based. In a few lines: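 Compounds at 10-point 2-fold dilutions (overall 0.1 nM to […], 0.5% DMSO) were applied to ET cells carrying a luciferase-neo HCV replicon, seeded a day earlier. After 48-72 hours, luciferase-based % inhibition was fitted with a Hill equation for EC50, and parallel WST-1 readings gave TC50.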
`FC(F)(F)c1cc(-c2ccoc2)cn2cc(Cc3nc(COc4ccccc4)no3)nc12` [Compound 231, 6-Furan-3-yl-2-(3-phenoxymethyl-[1,2,4]oxadiazol-5-ylmethyl)-8-trifluoromethyl-imidazo[1,2-a]pyridine] displayed an EC50 of over 50 µM.
Turning to `CC(C)CS(=O)(=O)NCc1cn2cc(-c3ccoc3)cc(C(F)(F)F)c2n1` [Compound 232, 2-Methyl-propane-1-sulfonic acid (6-furan-3-yl-8-trifluoromethyl-imidazo[1,2-a]pyridin-2-ylmethyl)-amide], the EC50 was over 50 µM.
Next, `CCOCCOC1CCN(C(=O)c2nc3c(C(F)(F)F)cc(-c4cn[nH]c4)cn3c2Cl)C1` (stereo not shown) [Compound 233, [3-Chloro-6-(1H-pyrazol-4-yl)-8-trifluoromethyl-imidazo[1,2-a]pyridin-2-yl]-[3-(2-ethoxy-ethoxy)-pyrrohdin-1-yl]-methanone]: over 50 µM; `O=C1c2ccccc2C(=O)N1Cc1cn2cc(-c3ccoc3)cc(C(F)(F)F)c2n1` [Compound 234, 2-(6-Furan-3-yl-8-trifluoromethyl-imidazo[1,2-a]pyridin-2-ylmethyl)-isoindole-1,3-dione]: over 50 µM; `Clc1ccc(Cn2c(CN3CCCC3)nc3ccccc32)cc1` [Compound 235, 1-(4-Chloro-benzyl)-2-pyrrolidin-1-ylmethyl-1H-benzoimidazole]: 40.2 µM.
The compound `N#CCc1cn2cc(-c3ccoc3)cc(C(F)(F)F)c2n1` [Compound 236, (6-Furan-3-yl-8-trifluoromethyl-imidazo[1,2-a]pyridin-2-yl)-acetonitrile] had an EC50 of over 50 µM.
In turn, `NC(=O)C1CCCN1C(=O)c1nc2c(C(F)(F)F)cc(-c3ccoc3)cn2c1Cl` (stereo not shown) [Compound 237, 1-(3-Chloro-6-furan-3-yl-8-trifluoromethyl-imidazo[1,2-a]pyridine-2-carbonyl)-pyrrolidine-2-carboxylic acid amide] yielded an EC50 of over 50 µM.
Compound `CN(C)CC(=O)NCc1cn2cc(-c3ccoc3)cc(C(F)(F)F)c2n1` [Compound 239, 2-Dimethylamino-N-(6-furan-3-yl-8-trifluoromethyl-imidazo[1,2-a]pyridin-2-ylmethyl)-acetamide] yielded a 50% effective concentration (EC50) of over 50 µM.
`CC(=O)NCC(=O)NCc1cn2cc(-c3ccoc3)cc(C(F)(F)F)c2n1` [Compound 240, 2-Acetylamino-N-(6-furan-3-yl-8-trifluoromethyl-imidazo[1,2-a]pyridin-2-ylmethyl)-acetamide] registered a concentration giving a half-maximal response (EC50) of over 50 µM.
Take `CC(C)CC(N)C(=O)NCc1cn2cc(-c3ccoc3)cc(C(F)(F)F)c2n1` (stereo not shown) [Compound 241, 2-Amino-4-methyl-pentanoic acid (6-furan-3-yl-8-trifluoromethyl-imidazo[1,2-a]pyridin-2-ylmethyl)-amide]: the EC50 was over 50 µM.
Turning to `CC(C)(C)OC(=O)NCCc1cn2cc(-c3ccoc3)cc(C(F)(F)F)c2n1` [Compound 242, [2-(6-Furan-3-yl-8-trifluoromethyl-imidazo[1,2-a]pyridin-2-yl)-ethyl]-carbamic acid tert-butyl ester], the EC50 was over 50 µM.
`CC(=O)NC(CC(C)C)C(=O)NCc1cn2cc(-c3ccoc3)cc(C(F)(F)F)c2n1` (stereo not shown) [Compound 243, 2-Acetylamino-4-methyl-pentanoic acid (6-furan-3-yl-8-trifluoromethyl-imidazo[1,2-a]pyridin-2-ylmethyl)-amide] had an EC50 of over 50 µM.
`CC(=O)NC(C)C(=O)NCc1cn2cc(-c3ccoc3)cc(C(F)(F)F)c2n1` (stereo not shown) [Compound 244, 2-Acetylamino-N-(6-furan-3-yl-8-trifluoromethyl-imidazo[1,2-a]pyridin-2-ylmethyl)-propionamide] returned an EC50 of over 50 µM.
Take `CC(=O)NC(Cc1c[nH]c2ccccc12)C(=O)NCc1cn2cc(-c3ccoc3)cc(C(F)(F)F)c2n1` (stereo not shown) [Compound 245, 2-Acetylamino-N-(6-furan-3-yl-8-trifluoromethyl-imidazo[1,2-a]pyridin-2-ylmethyl)-3-(1H-indol-3-yl)-propionamide]: the EC50 is over 50 µM.
`COC(=O)CNC(=O)c1cn2cc(-c3ccoc3)cc(C(F)(F)F)c2n1` [Compound 246, [(6-Furan-3-yl-8-trifluoromethyl-imidazo[1,2-a]pyridine-2-carbonyl)-amino]-acetic acid methyl ester] yielded an EC50 of over 50 µM.
In turn, `NC(=O)CNC(=O)c1cn2cc(-c3ccoc3)cc(C(F)(F)F)c2n1` [Compound 247, 6-Furan-3-yl-8-trifluoromethyl-imidazo[1,2-a]pyridine-2-carboxylic acid carbamoylmethyl-amide] displayed an EC50 of over 50 µM.
`CNC(=O)CNC(=O)c1cn2cc(-c3ccoc3)cc(C(F)(F)F)c2n1` [Compound 248, 6-Furan-3-yl-8-trifluoromethyl-imidazo[1,2-a]pyridine-2-carboxylic acid methylcarbamoylmethyl-amide] displayed an EC50 of over 50 µM.
Take `CN(C)C(=O)CNC(=O)c1cn2cc(-c3ccoc3)cc(C(F)(F)F)c2n1` [Compound 249, 6-Furan-3-yl-8-trifluoromethyl-imidazo[1,2-a]pyridine-2-carboxylic acid dimethylcarbamoylmethyl-amide]: the EC50 is over 50 µM.
In turn, `COC(=O)C(C)NC(=O)c1cn2cc(-c3ccoc3)cc(C(F)(F)F)c2n1` (stereo not shown) [Compound 250, 2-[(6-Furan-3-yl-8-trifluoromethyl-imidazo[1,2-a]pyridine-2-carbonyl)-amino]-propionic acid methyl ester] yielded an EC50 of over 50 µM.
`COC(=O)C(CCSC)NC(=O)c1cn2cc(-c3ccoc3)cc(C(F)(F)F)c2n1` (stereo not shown) [Compound 251, 2-[(6-Furan-3-yl-8-trifluoromethyl-imidazo[1,2-a]pyridine-2-carbonyl)-amino]-4-methylsulfanyl-butyric acid methyl ester]: the EC50 is over 50 µM.
The compound `COC(=O)C(CO)NC(=O)c1cn2cc(-c3ccoc3)cc(C(F)(F)F)c2n1` (stereo not shown) [Compound 252, 2-[(6-Furan-3-yl-8-trifluoromethyl-imidazo[1,2-a]pyridine-2-carbonyl)-amino]-3-hydroxy-propionic acid methyl ester] showed an EC50 of over 50 µM.
`COC(=O)C(NC(=O)c1cn2cc(-c3ccoc3)cc(C(F)(F)F)c2n1)C(C)O` (stereo not shown) [Compound 253, 2-[(6-Furan-3-yl-8-trifluoromethyl-imidazo[1,2-a]pyridine-2-carbonyl)-amino]-3-hydroxy-butyric acid methyl ester] came in with a 50% effective concentration (EC50) of over 50 µM.
Turning to `COC(=O)C1CCCN1C(=O)c1cn2cc(-c3ccoc3)cc(C(F)(F)F)c2n1` (stereo not shown) [Compound 254, 1-(6-Furan-3-yl-8-trifluoromethyl-imidazo[1,2-a]pyridine-2-carbonyl)-pyrrolidine-2-carboxylic acid methyl ester], the EC50 is over 50 µM.
`COC(=O)C(NC(=O)c1cn2cc(-c3ccoc3)cc(C(F)(F)F)c2n1)c1ccccc1` (stereo not shown) [Compound 255, [(6-Furan-3-yl-8-trifluoromethyl-imidazo[1,2-a]pyridine-2-carbonyl)-amino]-phenyl-acetic acid methyl ester] yielded a concentration giving a half-maximal response (EC50) of over 50 µM.
Next, `COC(=O)C(NC(=O)c1cn2cc(-c3ccoc3)cc(C(F)(F)F)c2n1)C(C)C` (stereo not shown) [Compound 256, 2-[(6-Furan-3-yl-8-trifluoromethyl-imidazo[1,2-a]pyridine-2-carbonyl)-amino]-3-methyl-butyric acid methyl ester]: over 50 µM; `COC(=O)C(CCCCNC(=O)OC(C)(C)C)NC(=O)c1cn2cc(-c3ccoc3)cc(C(F)(F)F)c2n1` (stereo not shown) [Compound 257, 6-tert-Butoxycarbonylamino-2-[(6-furan-3-yl-8-trifluoromethyl-imidazo[1,2-a]pyridine-2-carbonyl)-amino]-hexanoic acid methyl ester]: over 50 µM.
In turn, `NCCc1cn2cc(-c3ccoc3)cc(C(F)(F)F)c2n1` [Compound 258, 2-(6-Furan-3-yl-8-trifluoromethyl-imidazo[1,2-a]pyridin-2-yl)-ethylamine] yielded a 50% effective concentration (EC50) of over 50 µM.
Compound `CC(=O)NC(CO)C(=O)NCc1cn2cc(-c3ccoc3)cc(C(F)(F)F)c2n1` (stereo not shown) [Compound 259, 2-Acetylamino-N-(6-furan-3-yl-8-trifluoromethyl-imidazo[1,2-a]pyridin-2-ylmethyl)-3-hydroxy-propionamide] yielded an EC50 of over 50 µM.
`CC(=O)NC(Cc1ccccc1)C(=O)NCc1cn2cc(-c3ccoc3)cc(C(F)(F)F)c2n1` (stereo not shown) [Compound 260, 2-Acetylamino-N-(6-furan-3-yl-8-trifluoromethyl-imidazo[1,2-a]pyridin-2-ylmethyl)-3-phenyl-propionamide] yielded an EC50 of over 50 µM.
In turn, `CC(=O)NC(C(=O)NCc1cn2cc(-c3ccoc3)cc(C(F)(F)F)c2n1)C(C)C` (stereo not shown) [Compound 261, 2-Acetylamino-N-(6-furan-3-yl-8-trifluoromethyl-imidazo[1,2-a]pyridin-2-ylmethyl)-3-methyl-butyramide] came in with an EC50 of over 50 µM.
Compound `CC(C(=O)NCc1cn2cc(-c3ccoc3)cc(C(F)(F)F)c2n1)N(C)C` (stereo not shown) [Compound 262, 2-Dimethylamino-N-(6-furan-3-yl-8-trifluoromethyl-imidazo[1,2-a]pyridin-2-ylmethyl)-propionamide] gave an EC50 of over 50 µM.
`O=C(NCCc1cn2cc(-c3ccoc3)cc(C(F)(F)F)c2n1)c1cccs1` [Compound 263, Thiophene-2-carboxylic acid [2-(6-furan-3-yl-8-trifluoromethyl-imidazo[1,2-a]pyridin-2-yl)-ethyl]-amide] returned an EC50 of over 50 µM.
As for `O=C(O)CNC(=O)c1cn2cc(-c3ccoc3)cc(C(F)(F)F)c2n1` [Compound 264, [(6-Furan-3-yl-8-trifluoromethyl-imidazo[1,2-a]pyridine-2-carbonyl)-amino]-acetic acid], the EC50 is over 50 µM.
Consider `CC(NC(=O)c1cn2cc(-c3ccoc3)cc(C(F)(F)F)c2n1)C(=O)O` (stereo not shown) [Compound 265, 2-[(6-Furan-3-yl-8-trifluoromethyl-imidazo[1,2-a]pyridine-2-carbonyl)-amino]-propionic acid], for which the EC50 is over 50 µM.

For the origin of these results see US20100204265A1 (priority 2009, published 2010).
